Results: US20230013669A1, “Antibacterial Treatment Using a Cannabinoid and an Active Agent” (priority 2019, published 2023)
Values joined by “and” are separate entries in the source; they are usually repeats but may differ in a detail not shown here. Identical values can stand only once.

Test system: Acinetobacter baumannii ATCC 19606 (GN_034)
Test: Synergy of cannabidiol with cell-wall disrupting agent (CBD MIC in combination, FICI)
Format: cell-based
Description: The compounds were stored short term at 4° C.
Analysis was performed using Microsoft Excel.

[1] = CBD with Colistin, Acinetobacter baumannii ATCC 19606
[2] = CBD with MCC_6442, Acinetobacter baumannii ATCC 19606

SMILES: C=C(C)C1CCC(C)=CC1c1c(O)cc(CCCCC)cc1O (centres unmarked) [Cannabidiol, 2-[3-methyl-6-(1-methylethenyl)-2-cyclohexen-1-yl]-5-pentyl-1,3-benzenediol]
- FICI (CBD with Aztreonam at 8 μg/mL, CBD MIC taken as 256 μg/mL): 0.375
- FICI (CBD with Aztreonam at 16 μg/mL, CBD MIC taken as 256 μg/mL): 0.5
- FICI range (CBD with Aztreonam, all tested concentrations (Table 74)): 0.25-1.06
- FICI (CBD with Cefepime at 0.25 μg/mL, CBD MIC taken as 256 μg/mL): 1.016
- FICI (CBD with Cefepime at 0.5 μg/mL, CBD MIC taken as 256 μg/mL): 1.031
- FICI (CBD with Cefepime at 1 μg/mL, CBD MIC taken as 256 μg/mL): 1.0625
- FICI (CBD with Cefepime at 2 μg/mL, CBD MIC taken as 256 μg/mL): 1.125
- FICI (CBD with Cefepime at 4 μg/mL, CBD MIC taken as 256 μg/mL): 0.375
- FICI (CBD with Cefepime at 8 μg/mL, CBD MIC taken as 256 μg/mL): 0.5625
- FICI range (CBD with Cefepime, Synergy table (Table 81)): 0.38
- FICI range (CBD with Cefepime, all tested concentrations (Table 79)): 0.38-1.13
- FICI (CBD with Cefotetan at 4 μg/mL, CBD MIC taken as 256 μg/mL): 1.016
- FICI (CBD with Cefotetan at 8 μg/mL, CBD MIC taken as 256 μg/mL): 1.031
- FICI (CBD with Cefotetan at 16 μg/mL, CBD MIC taken as 256 μg/mL): 1.0625
- FICI (CBD with Cefotetan at 32 μg/mL, CBD MIC taken as 256 μg/mL): 1.125
- FICI (CBD with Cefotetan at 64 μg/mL, CBD MIC taken as 256 μg/mL): 1.25
- FICI (CBD with Cefotetan at 128 μg/mL, CBD MIC taken as 256 μg/mL): 1.5
- FICI range (MIC table) (CBD with Cefotetan, Acinetobacter baumannii ATCC 19606): 1.02-1.5
- FICI (CBD with Ceftazidime at 0.5 μg/mL, Acinetobacter baumannii ATCC 19606): 1.125
- FICI (CBD with Ceftazidime at 1 μg/mL, Acinetobacter baumannii ATCC 19606): 1.25
- FICI (CBD with Ceftazidime at 2 μg/mL, Acinetobacter baumannii ATCC 19606): 1.5
- FICI (CBD with Ceftazidime at 4 μg/mL, Acinetobacter baumannii ATCC 19606): 1.125
- FICI (CBD with Ceftazidime at 8 μg/mL, Acinetobacter baumannii ATCC 19606): 2.0625
- FICI (CBD with Ceftazidime at 16 μg/mL, Acinetobacter baumannii ATCC 19606): 4
- FICI range (MIC table) (CBD with Ceftazidime, Acinetobacter baumannii ATCC 19606): 1.13-4
- FICI (CBD with Cefuroxime at 4 μg/mL, Acinetobacter baumannii ATCC 19606): 1.0625
- FICI (CBD with Cefuroxime at 8 μg/mL, Acinetobacter baumannii ATCC 19606): 1.125
- FICI (CBD with Cefuroxime at 16 μg/mL, Acinetobacter baumannii ATCC 19606): 0.375
- FICI (CBD with Cefuroxime at 32 μg/mL, Acinetobacter baumannii ATCC 19606, listed as CBD): 0.5625 and 0.625
- FICI (CBD with Cefuroxime at 64 μg/mL, Acinetobacter baumannii ATCC 19606): 1
- FICI (CBD with Cefuroxime at 128 μg/mL, Acinetobacter baumannii ATCC 19606): 2
- FICI range (Synergy table) (CBD with Cefuroxime, Acinetobacter baumannii ATCC 19606): 0.38
- FICI (CBD with Colistin at 0.031 μg/mL, Acinetobacter baumannii ATCC 19606): 0.04662
- FICI (CBD with Colistin at 0.062 μg/mL, Acinetobacter baumannii ATCC 19606): 0.06981
- FICI (CBD with Colistin at 0.5 μg/mL, Acinetobacter baumannii ATCC 19606, listed as CBD): 0.501 and 0.5039
- FICI (CBD with Colistin at 1 μg/mL, Acinetobacter baumannii ATCC 19606): 1
- FICI range (MIC table) [1]: 0.05-1
- FICI range (Synergy table) [1]: 0.05-0.5
- FICI range (MIC table) [2]: 0.07-1.02
- FICI range (Synergy table) [2]: 0.09-1.13
- FICI (CBD with MCC_6442 at 0.5 μg/mL, Acinetobacter baumannii ATCC 19606): 1.016
- FICI (CBD with MCC_6442 at 1 μg/mL, Acinetobacter baumannii ATCC 19606): 0.09375
- FICI (CBD with MCC_6442 at 2 μg/mL, Acinetobacter baumannii ATCC 19606): 0.06641
- FICI (CBD with MCC_6442 at 4 μg/mL, Acinetobacter baumannii ATCC 19606): 0.127
- FICI range (CBD with Octapeptin C4, Synergy table (Table 85), listed as CBD): 0.28-0.5 and 0.19-0.5
- FICI range (CBD with Octapeptin C4, all tested concentrations (Table 83), listed as CBD): 0.28-1.13 and 0.19-1.06
- FICI (CBD with Octapeptin C4 at 0.25 μg/mL, CBD MIC taken as 256 μg/mL): 1.031
- FICI (CBD with Octapeptin C4 at 0.25 μg/mL, CBD MIC taken as 256 μg/mL, listed as cannabidiol): 1.016
- FICI (CBD with Octapeptin C4 at 0.5 μg/mL, CBD MIC taken as 256 μg/mL): 1.0625 and 1.031
- FICI (CBD with Octapeptin C4 at 1 μg/mL, CBD MIC taken as 256 μg/mL): 1.125 and 1.0625
- FICI (CBD with Octapeptin C4 at 2 μg/mL, CBD MIC taken as 256 μg/mL): 0.2812 and 0.1875
- FICI (CBD with Octapeptin C4 at 4 μg/mL, CBD MIC taken as 256 μg/mL): 0.5078 and 0.2578
- FICI (CBD with Octapeptin C4 at […], CBD MIC taken as 256 μg/mL): 1.016
